# According to US20240092825A1, “CERTAIN CHEMICAL ENTITIES, COMPOSITIONS, AND METHODS” (priority 2021, published 2024):
# Structures can show the parent of a compound that is named as a salt.
# Key:
# [1] = Accelerated stability test of Crystalline Form I, storage at 40° C./75% RH (open); type: physicochemical; details: for Appearance / DSC / Purity / XRPD: 40° C./75% RH (open)
# Protocol: (§1) X-ray powder diffraction (XRPD) patterns were obtained on a Bruker D8 Advance. A CuK source (=1.54179 angstrom) operating minimally at 40 kV and 40 mA scans each sample between 3 and 40 degrees 2-theta. The scanning rate is 10 degrees 2-theta per minute and the sample rotation speed is 15 revolutions per minute.
# (§2) Differential scanning calorimetry analysis was carried out on a TA Instrument DSC unit (TA Q2000). Samples were heated in non-hermetic aluminum pans from ambient to 260° C. at 10° C./min.
# (§3) Crystalline Form I was not changed after storage at 40° C./75% RH for 6 months, or storage at 25° C./60% RH for 36 months.
# [2] = Long-term stability test of Crystalline Form I, storage at 25° C./60% RH (open); type: physicochemical; details: for Appearance / DSC / Purity / XRPD: 25° C./60% RH (open)
# Protocol: as §1, §2, §3
structure (smiles),measurement,setting,value
"C[C@]12CC[C@H](OC(=O)N3CCNCC3)C[C@H]1CC[C@@H]1[C@@H]2CC[C@]2(C)[C@@H](c3ccc(=O)oc3)CC[C@]12O [Crystalline Form I, (3S,5R,8R,9S,10S,13R,14S,17R)-14-hydroxy-10,13-dimethyl-17-(2-oxo-2H-pyran-5-yl)hexadecahydro-1H-cyclopenta[a]phenanthren-3-yl piperazine-1-carboxylate maleate]",Appearance,[1]; 0 month,White powder
same,DSC,[1]; 0 month,233.84° ° C.
same,Purity,[1]; 0 month,99.86%
same,XRPD,[1]; 0 month,Form I
same,Appearance,[1]; 6 months,White powder
same,DSC,[1]; 6 months,234.28° ° C.
same,Purity,[1]; 6 months,99.91%
same,XRPD,[1]; 6 months,Form I
same,Change of crystalline form after storage,[1]; storage at 40° C./75% RH for 6 months,not changed
same,Appearance,[2]; 0 month,White powder
same,DSC,[2]; 0 month,233.84° ° C.
same,Purity,[2]; 0 month,99.86%
same,XRPD,[2]; 0 month,Form I
same,Appearance,[2]; 12 months,White powder
same,DSC,[2]; 12 months,234.41° ° C.
same,Purity,[2]; 12 months,99.87%
same,XRPD,[2]; 12 months,Form I
same,Appearance,[2]; 24 months,White powder
same,DSC,[2]; 24 months,232.9° ° C.
same,Purity,[2]; 24 months,99.91%
same,XRPD,[2]; 24 months,Form I
same,Appearance,[2]; 36 months,White powder
same,DSC,[2]; 36 months,233.6° ° C.
same,Purity,[2]; 36 months,100.00%
same,XRPD,[2]; 36 months,Form I
same,Change of crystalline form after storage,[2]; storage at 25° C./60% RH for 36 months,not changed
